Results from patent publication US4894460A (Pierrel S.p.A., priority 1982, dated 1990).

Experiments:
in vivo = settings: mouse, iv, mice, i.v. in dimethylsulfoxide, after seven days, Litchfield and Wilcoxon
Experimental: Intravenous Toxicity in Mice
Male CD1 mice from Charles River (Italy), weighing 25 g were used. Compounds were administered intravenously (i.v.), dissolved in dimethylsulfoxide, and the volume of administration was 0.01 ml per 10 g of body weight. The LD50 after seven days, was calculated according to the method of Litchfield and Wilcoxon (Experimental Therapeutics 96, 99 (1949)).

taenia coli = assay: Antagonistic activity to calcium in the taenia coli of guinea pigs (CaCl2-induced contractions, in vitro); format: cell-based, Hartley albino guinea pigs; settings: Cavia porcellus, 10 min; guinea pig taenia coli, depolarized, CaCl2 10^-3 M, 10 min contact; from maximum inhibition; read-out: Calcium antagonistic activity in vitro ED50
Experimental: Antagonistic Activity to Calcium in the Taenia Coli of Guinea Pigs
Hartley albino guinea pigs of average weight 450 g were used. The calcium antagonistic activity was determined stimulating the taenia coli, previously depolarized, with a single submaximal concentration of CaCl2 (10^-3 M), at intervals of 20 minutes (according to the method Naunyn Schmied. Arch. Pharmacol. 318, 235 (1982)). The products were left in contact with the preparation for 10 minutes. The ED50 were calculated from the percentage of maximum inhibition.

[1] = system: Spontaneous Hypertensive Rats (SHR); assay: Hypotensive activity in spontaneous hypertensive rats (SHR); format: in vivo, Male SHR (Okamoto) rats; settings: Rattus norvegicus, po, p.o. in 0.4% carboxymethyl cellulose, systolic arterial pressure, read-out: Hypotensive activity in SHR ED^SABP -25%
Experimental: Hypotensive Activity in Spontaneous Hypertensive Rats (SHR)
Male SHR (Okamoto), of 70-100 days of age were used. The systolic arterial pressure (SABP) was determined by applying to the tail of the animal a pressure transducer with a sleeve connected to a BP-Recorder (W-W Electronic of Basel). The animals were previously warmed to 39° C. for a period of 15-20 minutes in a ventilated chamber.
The rats were previously trained to the registration for 1-2 days prior to the start of the experiment which consisted of a basic registration, the pharmacological treatment and then of subsequent registrations one hour and three hours after the treatment.
All the products were administered orally (p.o.), suspended in 0.4% carboxymethyl cellulose (Methocel); the volume of vehicle was 2 ml per kg.
The compounds of formula (I) were tested at three dose levels and the value of ED-25% was determined.

SMILES | LD50 at 168 h (in vivo) | IC50 (taenia coli) | ED (25%) [1]
COC(=O)C1=C(C)NC(C)=C(C(=O)OCCN2CCN(c3ccc(C(F)(F)F)cc3)CC2)C1c1cccc([N+](=O)[O-])c1 (stereo not drawn) [0297C, 2-[4-(4-Trifluoromethylphenyl)]piperazinoethyl-2,6-dimethyl-4-(3-nitrophenyl)-5-methoxycarbonyl-1,4-dihydropyridine-3-carboxylate] | 73 mg/kg | 15 nM | 4.4 mg/kg
COC(=O)C1=C(C)NC(C)=C(C(=O)OCCN2CCN(c3cccc(OC)c3)CC2)C1c1cccc([N+](=O)[O-])c1 (stereo not drawn) [0298C, 2-[4-(3-Methoxyphenyl)]piperazinoethyl-2,6-dimethyl-4-(3-nitrophenyl)-5-methoxycarbonyl-1,4-dihydropyridine-3-carboxylate] | 38 mg/kg | 7.5 nM | 32 mg/kg
